The values that follow come from US8551966B2, “Chemical compounds” (priority 2011, dated 2013).

Where two headings read alike, the source gives them in different places.

The test system of assay [1] is recombinant vaccinia virus strain WR (VACV-WR) 'v3' expressing firefly luciferase, in RK13 cells. The assay is described as follows: microbe, parasite or virus in culture. It counts as cell-based. The note with it: for activity at 10 µM: Orthopoxvirus vaccinia, RK-13, 2 h, read-out: VV % activity at 10 μM (a).
The subject of assay [2] is wildtype measles virus strain WTFb in B95a marmoset B lymphocytes. The assay is described as follows: Measles syncytium reduction assay. The note with it: for Measles IC100/μM (b): concentration giving total suppression of syncytia formation, B95a cells, 50 syncytium forming units per well; for potency with respect to measles virus: statement in words on Table I data. It is filed as cell-based.

Another assay deals with VACV-WR in BSC-1 cells. The assay can be described thus: microbe, parasite or virus in culture. It is filed as cell-based, vaccinia virus. The note with it: read-out: VV plaque size IC50 μM (c).

Consider `CCCCCOCCCCCCCCCc1cc2cn([C@@H]3CC[C@H](CO)O3)c(=O)nc2[nH]1` [Cf 3253, 3-(2′,3′-dideoxy-ribo-β-L-furanosyl)-6-pentyloxynonyl-pyrrolo[2,3-d]pyrimidin-2(3H)-one], for which the activity at 10 µM in assay [1] came out at 52%.

With `CCCCCCOCCCCCCCCCc1cc2cn([C@@H]3CC[C@H](CO)O3)c(=O)nc2o1` [Cf 3209, 3-(2′,3′-dideoxy-ribo-β-L-furanosyl)-6-hexyloxynonylfuro[2,3-d]pyrimidin-2(3H)-one], in assay [1], the activity at 10 µM stood at 46%.

As for `CCCCOCCCCCCCCCc1cc2cn([C@@H]3CC[C@H](CO)O3)c(=O)nc2o1` [Cf 3207, 3-(2′,3′-dideoxy-ribo-β-L-furanosyl)-6-butyloxynonylfuro[2,3-d]pyrimidin-2(3H)-one], the activity at 10 µM in assay [1] came out at 29%.

Regarding `CCCCCCCc1cc2cn([C@@H]3CC[C@H](CO)O3)c(=O)nc2o1` [Cf 3174, 3-(2′,3′-dideoxy-ribo-β-L-furanosyl)-6-septylfuro[2,3-d]pyrimidin-2(3H)-one], the activity at 10 µM in assay [1] came to 41%.

Consider `COCCCCCCCCCCCCCc1cc2cn([C@@H]3CC[C@H](CO)O3)c(=O)nc2o1` [Cf 3254, 3-(2′,3′-dideoxy-ribo-β-L-furanosyl)-6-methyloxytridecylfuro[2,3-d]pyrimidin-2(3H)-one], for which, in assay [1], the activity at 10 µM is 59%.

As for `CCCCCCCCCCCCCOCc1cc2cn([C@@H]3CC[C@H](CO)O3)c(=O)nc2o1` [Cf 3232, 3-(2′,3′-dideoxy-ribo-β-L-furanosyl)-6-tridecyloxymethylfuro[2,3-d]pyrimidin-2(3H)-one], in assay [2], the “Measles IC100/μM (b)” value was 1 to 5 µM and the “potency with respect to measles virus” value is given as “significant potency”. Moreover, in assay [1], the activity at 10 µM came out at 45%.

Regarding `CCOCCCCCCCCCc1cc2cn([C@@H]3CC[C@H](CO)O3)c(=O)nc2o1` [Cf 3210, 3-(2′,3′-dideoxy-ribo-O-L-furanosyl)-6-ethyloxynonylfuro[2,3-d]pyrimidin 2(3H)-one], the activity at 10 µM in assay [1] was determined as 72%.

For the compound `CCCCCCCCCc1cc2cn([C@@H]3CC[C@H](CO)O3)c(=O)nc2o1` [Cf 3175, 3-(2′,3′-dideoxy-ribo+L-furanosyl)-6-nonylfuro[2,3-d]pyrimidin-2(3H)-one], the “Measles IC100/μM (b)” value in assay [2] lay in the range of 5 to 10 µM. In addition, in assay [1], the “potency with respect to vaccinia virus compared to comparative compound Cf2095” value is given as “greatly enhanced potency” and the activity at 10 µM worked out at 24%.

With `CCCOCCCCCCCCCc1cc2cn([C@@H]3CC[C@H](CO)O3)c(=O)nc2o1` [Cf 3204, 3-(2′,3′-dideoxy-ribo-β-L-furanosyl)-6-propyloxynonylfuro[2,3-d]pyrimidin-2(3H)-one], the activity at 10 µM in assay [1] was 41%.

Turning to `CCCCCCCCc1cc2cn([C@@H]3CC[C@H](CO)O3)c(=O)nc2o1` [Cf 3154, 3-(2′,3′-dideoxy-ribo-β-L-furanosyl)-6-octylfuro[2,3-d]pyrimidin-2(3H)-one], in assay [1], the “potency with respect to vaccinia virus compared to comparative compound Cf2095” value is “greatly enhanced potency” and the activity at 10 µM amounted to 23%.

Take `CCCCCCCCCCCCc1cc2cn([C@@H]3CC[C@H](CO)O3)c(=O)nc2o1` [Cf 3156, 3-(2′,3′-dideoxy-ribo-β-L-furanosyl)-6-dodecylfuro[2,3-d]-pyrimidin-2(3H)-one]: the activity at 10 µM in assay [1] is 65%.

As for `CCCCc1ccc(-c2cc3cn([C@@H]4CC[C@H](CO)O4)c(=O)nc3o2)cc1` [Cf 3176, 3-(2′,3′-dideoxy-ribo-β-L-furanosyl)-6-(4-n-butylphenyl)[2,3-d]pyrimidin-2(3H)-one], the activity at 10 µM in assay [1] came to 44%.

`CCCCCCOCCCCCCCCc1cc2cn([C@@H]3CC[C@H](CO)O3)c(=O)nc2o1` [Cf 3230, 3-(2′,3′-dideoxy-ribo-β-L-furanosyl)-6-hexyloxyoctylfuro[2,3-d]pyrimidin-2(3H)-one]: the activity at 10 µM in assay [1] turned out to be 29%.

As to `CCCCCCc1cc2cn([C@@H]3CC[C@H](CO)O3)c(=O)nc2o1` [Cf 3153, 3-(2′,3′-dideoxy-ribo-β-L-furanosyl)-6-hexylfuro[2,3-d]pyrimidin-2(3H)-one], the activity at 10 µM in assay [1] came out at 50%.

As usually defined, the IC50 is the concentration that gives 50% inhibition. Regarding `CCCCCOCCCCCCCCCc1cc2cn([C@@H]3CC[C@H](CO)O3)c(=O)nc2o1` [Cf 3208, 3-(2′,3′-dideoxy-ribo-β-L-furanosyl)-6-pentyloxynonylfuro[2,3-d]pyrimidin-2(3H)-one], the half-maximal inhibitory concentration (IC50) in the assay with VACV-WR in BSC-1 cells (Orthopoxvirus vaccinia, BSC-1, 72 h) was found to be 0.1 µM. For the same compound, in assay [2], the “Measles IC100/μM (b)” value was 1 to 5 µM and the “potency with respect to measles virus” value is recorded as “significant potency”. In addition, in assay [1], the “potency with respect to vaccinia virus compared to comparative compound Cf2095” value was “greatly enhanced potency” and the activity at 10 µM was 24%.

With `CCCCCOCCCCCCCCCc1cc2cn([C@@H]3CC[C@H](CO)O3)c(=O)nc2n1C` [Cf 3242, 3-(2′,3′-dideoxy-ribo-β-L-furanosyl)-6-pentyloxynonyl-N-methyl-pyrrolo[2,3-d]pyrimidin-2(3H)-one], the “Measles IC100/μM (b)” value in assay [2] lay within 5 to 10 µM. Also, in assay [1], the “potency with respect to vaccinia virus compared to comparative compound Cf2095” value is reported as “greatly enhanced potency” and the activity at 10 µM turned out to be 15%.

As to `CCCCCCCCCCc1cc2cn([C@@H]3CC[C@H](CO)O3)c(=O)nc2o1` [Cf 3155, 3-(2′,3′-dideoxy-ribo-β-Lfuranosyl)-6-decylfuro[2,3-d]pyrimidin-2(3H)-one], in assay [1], the “potency with respect to vaccinia virus compared to comparative compound Cf2095” value is listed as “greatly enhanced potency” and the activity at 10 µM came to 24%.

As to `CCCCCc1ccc(-c2cc3cn([C@@H]4CC[C@H](CO)O4)c(=O)nc3o2)cc1` [Cf 3177, 3-(2′,3′-dideoxy-ribo-D-L-furanosyl)-6-(4-n-pentylphenyl) [2,3-d]pyrimidin-2(3H)-one], in assay [1], the activity at 10 µM is 47%.

For the compound `CCCCCOCCCCCCCCCc1cc2cn([C@H]3CC[C@@H](CO)O3)c(=O)nc2o1` [Cf 2095, reference compound], the IC50 in the assay on VACV-WR in BSC-1 cells turned out to be 1.5 µM. Further, in assay [2], the “Measles IC100/μM (b)” value is “Inactive” and the “potency with respect to measles virus” value is “inactive”. Moreover, the “VV % activity at 10 μM (a)” value in assay [1] was 75%.

With `CCCCCCCCCCOCCCCc1cc2cn([C@@H]3CC[C@H](CO)O3)c(=O)nc2o1` [Cf 3231, 3-(2′,3′-dideoxy-ribo-β-L-furanosyl)-6-decyloxybutylfuro[2,3-d]pyrimidin-2(3H)-one], in assay [1], the activity at 10 µM amounted to 26%.
